From patent publication US20120294886A1, “PEPTIDE CONJUGATES FOR SUPPRESSING AN IMMUNE RESPONSE, METHODS OF MAKING AND USES THEREFOR” (The University of Queensland, priority 2011, published 2012)

Tests used:
MHC class I molecules = assay: Colocalisation of peptide with MHC class I in macrophages, confocal microscopy (Example 3); assay type: cell-based, mouse; conditions: FIG. 5
Procedure: (§1) For confocal microscopy, macrophages were isolated from normal 8-12-wk old female SJL/J mice peritoneal cell suspensions by adhesion to glass coverslips. The macrophages were then incubated with 100 μM peptide for between 1 min and 24 h at 37° C., the peptide being one of:
(§2) After incubation, cells were fixed with 4% formaldehyde in PBS for 15 min at room temperature and permeabilised with 0.05% digitonin in PBS for 5 min at room temperature or 0.2% Triton X-100 in PBS for 20 min at room temperature.
(§3) The cells were then incubated with murine antibodies against endosomes, lysosomes, endoplasmic reticulum, or MHC class I or II molecules for 1-3 hours at 37° C. After three washes in PBS, cells were incubated with streptavidin-Alexa 488 (1/400 dilution in PBS) or streptavidin-Cy3 (1/450 dilution in PBS) (both from Molecular Probes) and Texas Red-labeled rabbit anti-mouse IgG or IgM for 30 min in the dark at room temperature. After washing with PBS, coverslips were mounted in Aquapolymount medium. Immunofluorescence staining was monitored with a laser scanning microscope (LSM 510; Carl Zeiss Laboratories) equipped with a Plan-Apochromat 63× oil DIC immersion lens (numerical aperture 1.4). […] Quantification of colocalisation was performed on cells from 10 to 12 fields (at least 100 cells) with the colocalisation module of the Zeiss LSM Image Browser software.

MHC class II molecules = assay: Colocalisation of peptide with MHC class II in macrophages, confocal microscopy (Example 3); assay type: cell-based, mouse; conditions: FIG. 5
Procedure: as §1, §2, §3

endosomes = assay: Colocalisation of peptide with endosomes in macrophages, confocal microscopy (Example 3); assay type: cell-based, mouse; conditions: FIG. 3
Procedure: as §1, §2, §3

[1] = tested on: endoplasmic reticulum (ER); assay: Colocalisation of peptide with endoplasmic reticulum in macrophages, confocal microscopy (Example 3); assay type: cell-based, mouse; conditions: 30 or 60 minutes incubation, FIG. 4
Procedure: as §1, §2, §3

lysosomes = assay: Colocalisation of peptide with lysosomes in macrophages, confocal microscopy (Example 3); assay type: cell-based, mouse; conditions: FIG. 3
Procedure: as §1, §2, §3

SJL/J mouse [2] = assay: EAE induction by F188, co-immunisation with A188 or S-palm A188 (Example 5); assay type: in vivo
Procedure: (§4) One mg per mL of F188 peptide, either alone or together with A188 peptide or S-palm A188 peptide at different molar ratios, was emulsified in an equal volume of complete Freund's adjuvant containing an additional 4 mg/ml Mycobacterium tuberculosis H37Ra. 200 μl of the emulsion (i.e. 100 μg F188) was then injected subcutaneously in a single site on the back of each SJL/J mouse. Each mouse also received 300 ng pertussis toxin intravenously on the same day as the peptide emulsion and then 3 days later.
(§5) The mice were inspected and weighed daily and scored for disease using a 5 point severity scale: 0=no disease; 1=decreased tail tone; 2=no tail tone; 3=hind limb weakness; 4=hind limb paralysis; 5=moribund.

SJL/J mice [3] = assay: Induction of EAE by immunisation with peptide in complete Freund's adjuvant (Example 2); assay type: in vivo, mouse; conditions: for Day of Onset / Incidence: EAE; for Day of Onset / Incidence / Score: mice immunised with the peptide in CFA; for Incidence: followed for 6 weeks; for Score: clinical score of EAE; for Duration: duration of the first episode of disease
Procedure: In examples 2 and 4-8, PLP encephalitogenic epitopes were injected into SJL/J mice to induce EAE, so the mice could be used as an animal model for MS. Such a model has been used in numerous studies, including where preventative or treatment methods for MS are being investigated. The study described in Hofstetter et al., 2007, for example, describes the induction of EAE in SJL mice at pages 1373-1374.
Mice were immunised with the above non-palmitoylated, S-palmitoylated or N-palmitoylated peptides in complete Freund's adjuvant to induce EAE.
(1) Mice were followed for 6 weeks to determine the induction of EAE.

lymph node cells (LNC) = assay: CD4/CD8 ratio of activated LNC by flow cytometry (Example 2); assay type: cell-based, mouse; conditions: activated LNC from immunised mice, 4 per group
Procedure: Lymph nodes from a different group of mice immunised in the same manner were removed 10 days after injection of the peptides and single cell suspensions of lymph node cells (LNC) were prepared.
(3) Other LNC were incubated with antibodies against CD4 or CD8, and the ratio of CD4 to CD8 was determined using flow cytometric techniques. LNC were centrifuged through a Ficoll gradient and washed with PBS containing 1% FCS and 0.01% sodium azide (wash buffer). Aliquots of 1 million cells were incubated with antibodies specific for CD4 (clone RM4-5; rat IgG2a) or CD8a (clone 53-6.7; rat IgG2a) together with an antibody specific for the TCR β-chain (H57-597; hamster IgG) for 30 min at 4° C. in the dark, followed by FITC-conjugate anti-rat κ-chain or PE-conjugated anti-hamster IgG for 30 min at 4° C. in the dark. Isotype-matched primary antibodies were used as controls. All antibodies were purchased from PharMingen (San Diego, Calif.) and were used at 1 μg/ml dilution in wash buffer. After washing, cells were resuspended in wash buffer and analysed using a FACSCalibur flow cytometer (Becton Dickinson, Franklin Lakes, N.J.).

SJL/J mouse [4] = assay: EAE induction by W144, co-immunisation with Q144 or S-palm Q144 (Example 4); assay type: in vivo
Procedure: as §4, with “W144” for “F188”, “Q144” for “A188”, “W144)” for “F188)”
as §5

SJL/J mice [5] = assay: Therapeutic treatment of established S-palm-PLP178-191-induced EAE (Example 7); assay type: in vivo, mouse; conditions: 100 μL of 1 mg/mL in PBS s.c. at score 2.0 or 2.5, followed for 7 days, versus PBS, FIG. 6
Procedure: SJL/J mice were injected subcutaneously with 100 μg S-palm-F188 (S-palm-PLP178-191), i.e. 100 μl of a 1 mg/ml solution emulsified in an equal volume (i.e. 100 μl Complete Freund's Adjuvant containing an extra 4 mg/mL Mycobacterium tuberculosis H37Ra. Each mouse also received 300 ng pertussis toxin intravenously on the same day as the peptide emulsion and then 3 days later.
The mice were then inspected and scored for disease using a 5 point severity scale: 0=no disease; 1=decreased tail tone; 2=no tail tone; 3=hind limb weakness; 4=hind limb paralysis; 5=moribund.
When the mice reached a score between 2.0 or 2.5, each mouse was injected subcutaneously with 100 μL PBS (n=6), 100 μL of 1 mg/mL A188 in PBS (n=6), or 100 μL of 1 mg/mL S-palm-A188 in PBS (n=7).
Mice were then followed for 7 days, and scored each day.

[6] = EAE, 100 μg W144 alone in CFA s.c.

PLP139-151 Cys140-Palm Lys150-Biot (S-palm) (HCLGKWLGHPDKF) [S-palm peptide]
Colocalisation with MHC class I (MHC class I molecules): only a small percentage
Colocalisation with MHC class II (MHC class II molecules): colocalised strongly with MHC class II
Colocalisation with endosomes (endosomes): colocalised rapidly and strongly with endosomes
Colocalisation with endoplasmic reticulum (ER) [1]: but not S-palm peptide colocalised strongly
Colocalisation with lysosomes (lysosomes): colocalised strongly with lysosomes

H2N-NTWTTCQSIAFPSK-CO2H (H-NTWTTCQSIAFPSK-OH) [PLP178-191]
Mean severity (SJL/J mouse [2]; 5 point scale, F188 alone): 2.8 ± 0.3
Incidence (SJL/J mouse [2]; EAE, 100 μg F188 alone in CFA s.c.): 8/8
Mean day of onset (SJL/J mouse [2]; EAE, F188 alone): 11.3 ± 0.5 days
Day of Onset (SJL/J mice [3]): 13.0 ± 1.5 days
Incidence (SJL/J mice [3]): 5/5
Score (SJL/J mice [3]): 2.7 ± 0.9
Duration (SJL/J mice [3]): 5.8 ± 0.4

H2N-HCLGKWLGHPDKF-CO2H (H-HCLGKWLGHPDKF-OH) [PLP139-151]
CD4/CD8 Ratio (mean ± SEM) (lymph node cells (LNC)): 2.18 ± 0.19
Incidence (SJL/J mouse [4]; [6]): 4/4
Mean day of onset (SJL/J mouse [4]; [6]): 11.5 days
Mean severity (SJL/J mouse [4]; mean maximum severity of mice that developed EAE, 5 point scale, W144 alone): 4.3
Day of Onset (SJL/J mice [3]): 11.0 ± 1.4 days
Incidence (SJL/J mice [3]): 4/4
Score (SJL/J mice [3]): 3.0 ± 0.7
Duration (SJL/J mice [3]): 5.8 ± 1.8

H2N-NTWTTCQSIAAPSK-CO2H (H-NTWTTCQSIAAPSK-OH) [A188]
Protective effect on EAE (in words) (SJL/J mouse [2]; injected at a dose 5 times greater than the encephalitogenic peptide F188): protective
Mean EAE score after treatment (SJL/J mice [5]): intermediate between the control group and the S-palm-A188-treated group

H2N-KTTICGKGLSATVT-CO2H (H-KTTICGKGLSATVT-OH) [PLP104-117]
CD4/CD8 Ratio (mean ± SEM) (lymph node cells (LNC)): 2.31 ± 0.07
Incidence (SJL/J mice [3]): 0/4
Score (SJL/J mice [3]): 0

PLP139-151 His139-Palm Lys150-Biot (N-palm) (HCLGKWLGHPDKF) [N-palm peptide]
Colocalisation with MHC class I (MHC class I molecules): colocalised strongly with MHC class I
Colocalisation with endosomes (endosomes): did not colocalise strongly with endosomes in most cells
Colocalisation with endoplasmic reticulum (ER) [1]: colocalised strongly with endoplasmic reticulum (ER)
Colocalisation with lysosomes (lysosomes): did not colocalise strongly with lysosomes in most cells
